IC50 data for 45 compounds are collected here from patent publication US20230078764A1 (Yumanity Therapeutics, Inc., priority 2019, published 2023).

The target in one assay is T1, human SCD1 (Homo sapiens, UniProt O00767).
T1 construct: expressed in transfected cells; host or cells: yeast strain with OLE1 deleted, plasmid-borne human SCD1 (selected in SD-Ura)
T1 sequence (O00767 1-359): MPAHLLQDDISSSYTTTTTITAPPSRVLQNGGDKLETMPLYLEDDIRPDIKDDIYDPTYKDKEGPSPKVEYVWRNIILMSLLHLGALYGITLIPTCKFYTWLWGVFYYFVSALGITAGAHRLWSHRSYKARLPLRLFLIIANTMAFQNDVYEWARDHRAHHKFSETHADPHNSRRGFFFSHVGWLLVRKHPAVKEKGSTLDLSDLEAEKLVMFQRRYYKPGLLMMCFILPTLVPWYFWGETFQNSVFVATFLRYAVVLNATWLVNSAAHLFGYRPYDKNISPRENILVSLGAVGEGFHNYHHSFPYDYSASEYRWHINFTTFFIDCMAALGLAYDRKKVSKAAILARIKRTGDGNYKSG
The experiment in a line: Growth inhibition of yeast strain expressing human SCD1 as sole desaturase (OLE1 deleted), OD600 readout. Format: cell-based. The conditions noted are these: yeast strain expressing human SCD1 as sole desaturase; growth (OD600) after 40 h at 30° C.; read-out: SCD1 IC50.

In a further assay the target is T2, human SCD5 (Homo sapiens, UniProt Q86SK9).
T2 construct: expressed in transfected cells; host or cells: yeast strain with OLE1 deleted, plasmid-borne human SCD5 (selected in SD-Ura)
T2 sequence (Q86SK9 1-330): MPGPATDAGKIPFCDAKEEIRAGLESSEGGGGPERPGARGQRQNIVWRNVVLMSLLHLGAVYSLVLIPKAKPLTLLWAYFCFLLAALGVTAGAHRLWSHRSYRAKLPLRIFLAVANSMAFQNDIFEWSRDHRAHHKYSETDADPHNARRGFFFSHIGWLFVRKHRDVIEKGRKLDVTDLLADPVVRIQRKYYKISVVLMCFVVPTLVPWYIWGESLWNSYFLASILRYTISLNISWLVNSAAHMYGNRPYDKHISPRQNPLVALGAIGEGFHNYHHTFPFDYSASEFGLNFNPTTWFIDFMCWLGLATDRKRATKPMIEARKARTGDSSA
The experiment in a line: Growth inhibition of yeast strain expressing human SCD5 as sole desaturase (OLE1 deleted), OD600 readout. The class given is cell-based. Conditions: yeast strain expressing human SCD5 as sole desaturase; growth (OD600) after 40 h at 30° C.; read-out: SCD5 IC50.

For `Cn1nc(C(=O)NC2CCC(Oc3cccc(Cl)c3)CC2)ccc1=O` (stereo not drawn) [Compound 369], the results for the IC50 at human SCD1 and at human SCD5 were over 45 µM and 14 µM, respectively.
As for `CN1N=C(C(=O)Nc2ccc(CC3CCCCC3)cn2)CCC1=O` [Compound 370], the concentration for half-maximal inhibition (IC50) (in general, the midpoint of a concentration-inhibition curve) on human SCD1 is over 45 µM; on human SCD5, 6.65 µM.
As for `Cn1ccc(C(=O)Nc2ccc(Cc3ccc(F)c(F)c3)cn2)n1` [Compound 371], the figures for the IC50 on human SCD1 and on human SCD5 were 0.12 µM and 0.01 µM, respectively.
For `O=C(Nc1ccc(Cc2cccc(F)c2)cn1)c1ccn(C(F)(F)F)n1` [Compound 372], the IC50 on human SCD1 was over 45 µM; on human SCD5, 0.77 µM.
The matching figures for `CCn1cc(C(=O)Nc2ccc(Cc3cccc(Cl)c3)cn2)cn1` [Compound 373]: 0.3 µM and 0.03 µM.
The matching figures for `CC(C)(O)c1ccc(C(=O)Nc2ccc(Cc3cccc(Cl)c3)cn2)cn1` [Compound 374]: 38.5 µM and 7.04 µM.
The matching figures for `O=C(Nc1ccc(CC2CCCCC2)cn1)c1ccc(CO)nc1` [Compound 375]: 0.01 µM and 0.01 µM.
`O=C(Nc1ccc(Cc2cccc(F)c2)nn1)c1ccc(=O)n(CC2CC2)n1` [Compound 376]: the half-maximal inhibitory concentration (IC50) on human SCD1 and on human SCD5 was over 45 µM in each case.
Consider `CN1CC(C(=O)Nc2ncc(Cc3cccc(F)c3)s2)CC1=O` (stereo not drawn) [Compound 377], for which the IC50 on human SCD1 and at human SCD5 was over 45 µM in each case.
On to `CN1N=C(C(=O)Nc2nc(Cc3ccc(F)cc3)cs2)CCC1=O` [Compound 378], for which the IC50 at human SCD1 and at human SCD5 was over 45 µM throughout.
`CCn1cc(C(=O)Nc2ccc(Cc3ccc(F)cc3)nn2)ccc1=O` [Compound 379]: the IC50 at human SCD1 and at human SCD5 was over 45 µM throughout.
For the compound `CN1N=C(C(=O)Nc2ncc(Cc3ccccc3C#N)s2)CCC1=O` [Compound 380], the IC50 on human SCD1 and at human SCD5 was over 45 µM each time.
`CN1N=C(C(=O)NCc2ccc(Cc3cccc(F)c3)cn2)CCC1=O` [Compound 381]: the IC50 at human SCD1 and at human SCD5 was over 45 µM throughout.
Take `CN1N=C(C(=O)Nc2ccnc(Cc3cccc(Cl)c3)c2)CCC1=O` [Compound 382]: the half-inhibitory concentration (IC50) at human SCD1 and at human SCD5 was over 45 µM throughout.
As for `CC(C)c1ccc(Cc2ccc(NC(=O)C3=NN(C)C(=O)CC3)nc2)cc1` [Compound 383], the IC50 at human SCD1 and at human SCD5 was over 45 µM in each case.
For `Cn1nc(C(=O)Nc2ccc(Cc3cc(F)cc(Cl)c3)nn2)ccc1=O` [Compound 384], the IC50 at human SCD1 and on human SCD5 was over 45 µM each time.
On to `CN1N=C(C(=O)Nc2ncc(COc3cccc(Cl)c3)s2)CCC1=O` [Compound 385], for which the IC50 at human SCD1 and at human SCD5 was over 45 µM in each case.
With `O=C(Nc1ncc(Cc2cccc(F)c2)s1)C1=NN(CCF)C(=O)CC1` [Compound 386], the 50% inhibitory concentration (IC50) at human SCD1 and at human SCD5 was over 45 µM in each case.
With `COc1cc(Cc2cccc(Cl)c2)cnc1NC(=O)C1=NN(C)C(=O)CC1` [Compound 387], the IC50 on human SCD1 and on human SCD5 was over 45 µM in each case.
Regarding `CN1N=C(C(=O)Nc2cnc(Cc3cccc(F)c3)s2)CCC1=O` [Compound 388], the results for the IC50 on human SCD1 and at human SCD5 were 17.6 µM and over 45 µM, respectively.
As to `Cn1nc(C(=O)Nc2ncc(Cc3cccc(C#N)c3)s2)ccc1=O` [Compound 389], the IC50 on human SCD1 and on human SCD5 was over 45 µM in each case.
As to `CN1N=C(C(=O)Nc2ncc(Cc3ccc4ccccc4n3)s2)CCC1=O` [Compound 390], the IC50 on human SCD1 and on human SCD5 was over 45 µM throughout.
In the case of `CS(=O)(=O)c1cccc(C(=O)Nc2ccc(Cc3cccc(F)c3)cn2)c1` [Compound 391], the values for the IC50 on human SCD1 and on human SCD5 were 1.24 µM and over 45 µM, respectively.
Regarding `CN1N=C(C(=O)Nc2ccc(Cc3ccc(C4CC4)nc3)cn2)CCC1=O` [Compound 392], the IC50 at human SCD1 and at human SCD5 was over 45 µM each time.
For `O=C(Nc1ccc(Cc2cccc(Cl)c2)cn1)N1CCC2(CC1)COC2` [Compound 393], the IC50 on human SCD1 and at human SCD5 was over 45 µM throughout.
Take `CC(=O)Nc1ccc(/C=C/c2cccc(Cl)c2)nn1` [Compound 394]: the IC50 on human SCD1 and on human SCD5 was over 45 µM throughout.
As for `CC(C)Cc1ccc(NC(=O)c2ccc(=O)n(C)n2)nn1` [Compound 395], the IC50 on human SCD1 and on human SCD5 was over 45 µM in each case.
For the compound `CN1N=C(C(=O)Nc2ccc(COC3(C)CC3)cn2)CCC1=O` [Compound 396], the IC50 at human SCD1 and on human SCD5 was over 45 µM each time.
For `CN1N=C(CNc2ccc(Cc3cccc(F)c3)cn2)CCC1=O` [Compound 397], the 50% inhibitory concentration (IC50) on human SCD1 and on human SCD5 was over 45 µM in each case.
Regarding `CN1N=C(C(=O)Nc2ncc(Cc3cccnc3)s2)CCC1=O` [Compound 398], the IC50 at human SCD1 and on human SCD5 was over 45 µM in each case.
Regarding `CN1N=C(C(=O)Nc2ncc(Cc3cccc(F)c3)o2)CCC1=O` [Compound 399], the IC50 at human SCD1 and at human SCD5 was over 45 µM each time.
For the compound `CN1C(=O)CCC1C(=O)Nc1ncc(Cc2cccc(F)c2)s1` (stereo not drawn) [Compound 400], the half-maximal inhibitory concentration (IC50) at human SCD1 and on human SCD5 was over 45 µM each time.
With `CN1N=C(C(=O)Nc2ccc(Cc3cccc(F)c3)nc2)CCC1=O` [Compound 401], the concentration for half-maximal inhibition (IC50) on human SCD1 and at human SCD5 was over 45 µM each time.
As to `Cc1cnc(Cc2ccc(NC(=O)C3=NN(C)C(=O)CC3)nc2)s1` [Compound 402], the IC50 at human SCD1 and on human SCD5 was over 45 µM throughout.
`CC(=O)C1CN(C(=O)Nc2ccc(Cc3cccc(Cl)c3)cn2)C1` [Compound 403]: the IC50 on human SCD1 and at human SCD5 was over 45 µM in each case.
As to `COc1ccc(C(=O)Nc2ncc(Cc3cccc(F)c3)s2)nn1` [Compound 404], the IC50 at human SCD1 and at human SCD5 was over 45 µM in each case.
As for `CN1N=C(C(=O)Nc2cnn(Cc3cccc(Cl)c3)c2)CCC1=O` [Compound 405], the IC50 at human SCD1 and on human SCD5 was over 45 µM in each case.
Consider `CN1N=C(C(=O)Nc2nc(Cc3cccc(F)c3)cs2)CCC1=O` [Compound 406], for which the IC50 at human SCD1 and on human SCD5 was over 45 µM throughout.
As to `CN1N=C(C(=O)Nc2nnc(Cc3cccc(Cl)c3)[nH]2)CCC1=O` [Compound 407], the concentration for half-maximal inhibition (IC50) at human SCD1 and at human SCD5 was over 45 µM throughout.
Take `CN1N=C(C(=O)Nc2nc(Cc3cccc(F)c3)ns2)CCC1=O` [Compound 408]: the IC50 at human SCD1 and at human SCD5 was over 45 µM throughout.
In the case of `CN1N=C(C(=O)Nc2nnc(Cc3cccc(Cl)c3)o2)CCC1=O` [Compound 409], the IC50 at human SCD1 and on human SCD5 was over 45 µM in each case.
In the case of `CCn1cc(C(=O)Nc2ccc(Cc3cccc(F)c3)nn2)ccc1=O` [Compound 410], the IC50 at human SCD1 and on human SCD5 was over 45 µM in each case.
On to `Cn1nc(C(=O)NCc2ccc(Cc3cccc(F)c3)cn2)ccc1=O` [Compound 411], for which the IC50 on human SCD1 and at human SCD5 was over 45 µM in each case.
With `CN1N=C(C(=O)Nc2ccc(CN3CCC(C)(C)CC3)cn2)CCC1=O` [Compound 412], the IC50 at human SCD1 and on human SCD5 was over 45 µM throughout.
In the case of `CN1N=C(C(=O)Nc2ncc(C(=O)c3cccc(F)c3)s2)CCC1=O` [Compound 413], the IC50 on human SCD1 and on human SCD5 was over 45 µM throughout.
